From patent US11584775B2, “C4-modified oleanolic acid derivatives for inhibition of IL-17 and other uses” (REATA PHARMACEUTICALS, INC., priority 2015, dated 2023) come the findings set out here.

The subject of one experiment is NRF2. Kind of experiment: AREc32 luciferase reporter assay. It counts as cell-based, human. As to conditions: EC2×: concentration required to increase GST ARE Luciferase reporter activity by 2-fold; AREc32 cells, 19 hours. From the text:
B. AREc32 Luciferase Reporter Assay
The AREc32 luciferase reporter assay allows for quantitative assessment of the endogenous activity of the Nrf2 transcription factor in cultured mammalian cells. AREc32 cells are derived from MCF-7 human breast carcinoma cells that were stably transfected with a reporter construct that contains the firefly luciferase gene located downstream of eight copies of the rat GSTA2 antioxidant response element (ARE) sequence (Wang et al., 2006; CXR Biosciences). Active NRF2 binds to the ARE sequences and increases expression of the firefly luciferase gene. To assess the NRF2-activating potential of the test compounds, AREc32 cells were plated in black 96-well plates at a density of 20,000 cells per well in triplicate in DMEM+10% FBS+0.8 mg/mL Geneticin and incubated at 37° C. with 5% CO2 in a humidified atmosphere. The next day, cells were treated with DMSO (vehicle) or test compound (concentration ranges of 0.4-200 nM or 2-1000 nM) for 19 hours. Luciferase activity was determined using the ONE-Glo Luciferase assay (Promega). The luminescence signal was measured on a BMG Pherastar microplate reader. The mean luminescence value from test compound-treated wells was normalized to that from DMSO-treated wells and was represented as fold-induction. Data were analyzed using GraphPad Prism version 6.00 for Windows, GraphPad Software, La Jolla Calif. USA. A non-linear regression curve with log (agonist) vs. response using a variable slope was used to fit the data. Where applicable, a maximum threshold value of 50-fold over DMSO was set. EC2× values were interpolated from the curve. EC2× corresponds to the concentration of test compound required to increase GST ARE Luciferase reporter activity by 2-fold.

In the next experiment the target is T1, human RORγ (Homo sapiens, UniProt P51449).
T1 sequence (P51449 269-508 limits assumed): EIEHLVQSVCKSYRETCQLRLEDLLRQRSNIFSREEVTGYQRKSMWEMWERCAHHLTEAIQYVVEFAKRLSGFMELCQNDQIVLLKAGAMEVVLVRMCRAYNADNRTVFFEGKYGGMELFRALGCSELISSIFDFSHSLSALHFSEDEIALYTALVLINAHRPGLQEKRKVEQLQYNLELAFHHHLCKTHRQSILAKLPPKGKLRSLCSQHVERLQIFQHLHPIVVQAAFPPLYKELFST
Kind of experiment: RORγ assay (GAL4-RORγ hybrid luciferase reporter, inverse-agonist activity). The settings on record: GAL4-RORγ hybrid reporter cells, 23 hours. It counts as cell-based. An excerpt:
C. RORγ Assay and Cell Viability
The RORγ assay system was purchased from Indigo Biosciences. This nuclear receptor assay utilizes a human cell line that has been engineered to express a hybrid form of the Human RAR-related Orphan Receptor Gamma (RORγ) at high levels. The N-terminal DNA binding domain (DBD) of the native RORγ receptor was substituted with the yeast GAL4-DBD to generate the GAL4-RORγ hybrid nuclear receptor. The reporter cell line is transfected with a plasmid that encodes the beetle luciferase gene under the control of the GAL4 upstream activating sequence (UAS). GAL4 binds to the UAS and increases transcription of downstream target genes. […] To assess the RORγ inverse-agonist activity of the test compounds, reporter cells were plated in white 96-well plates in triplicate and were treated with DMSO (vehicle) or test compound (concentration ranges of 0.4-200 nM or 2-1000 nM) at 37° C. with 5% CO2 in a humidified atmosphere for 23 hours. After this incubation, luciferin was added to the wells and luciferase activity was determined by measuring the luminescence signal using a BMG Pherastar microplate reader. Viability was determined using the Live Cell Multiplex Assay (Indigo Biosciences). Values from test compound samples were normalized to those from DMSO-treated samples. Data were analyzed using GraphPad Prism version 6.00 for Windows (GraphPad Software, La Jolla Calif. USA). A non-linear regression analysis with log (inhibitor) vs. normalized response using a variable slope was applied to fit the data and determine the IC50 values for inhibition of RORγ and cell viability.

Experiment [1] deals with IFNγ-induced Nitric Oxide production. Kind of experiment: Nitric oxide production assay in RAW 264.7 mouse macrophages. As to conditions: RAW264.7, suppression of IFNγ-induced NO production normalized to cell viability (WST-1), RAW 264.7, 24 hours IFNγ. In kind it is cell-based. On the procedure:
A. Nitric Oxide Production Assay and Cell Viability
RAW 264.7 mouse macrophages were plated in 96-well plates at a density of 30,000 cells per well in triplicate in RPMI 1640+0.5% FBS and incubated at 37° C. with 5% CO2 in a humidified atmosphere. The next day, cells were pre-treated with DMSO (vehicle) or test compound (concentration ranges of 0.4-200 nM or 2-1000 nM) for 2 hours and then treated with recombinant mouse IFNγ (R&D Systems) for 24 hours. Nitric oxide concentration in media was determined using the Griess reagent system (Promega). Cell viability was determined using WST-1 reagent (Roche). Values from test compound samples were normalized to those from DMSO/IFNγ-treated samples. IC50 values were determined based on the suppression of IFNγ-induced Nitric Oxide production normalized to cell viability.

The test system of a further experiment is hIL17. Kind of experiment: IL-17 release from differentiated primary human T-cells (IL-17A HTRF assay). It counts as cell-based. The settings on record: inhibition of IL-17A levels; primary human CD4+ T cells differentiated into Th17 cells, 46-hour incubation. On the procedure: D. IL-17 Release from Differentiated Primary Human T-Cells and Cell Viability
Primary human cryopreserved CD4+ T Cells (Lonza, donor #0000402103) were plated in Lymphocyte Growth Medium-3 (LGM-3, Lonza) according to the manufacturer's recommendations, and allowed to recover for approximately 3 hours at 37° C. with 5% CO2 in a humidified atmosphere. After the recovery step, cells were collected by centrifugation and re-plated in 96-well plates at a density of ˜140,000 cells per well in LGM-3 medium that contained DMSO (vehicle) or test compound (2-500 nM or 4-1000 nM concentration range). Triplicate wells were plated for each test condition. DMSO (final concentration ≤0.1%) was used as the vehicle. Immediately after plating, CD4+ T cells were activated by adding Dynabeads Human T-Activator CD3/CD28 (Life Technologies; bead-to-cell ratio of 1:2.5) and differentiated into Th17 cells by adding a mixture of the following cytokines: transforming growth factor-β (TGF-β, 5 ng/mL), IL-6 (20 ng/mL), IL-23 (20 ng/mL), and […] (10 ng/mL). Undifferentiated control cells received only cytokine IL-2 (50 ng/mL). All human recombinant cytokines were purchased from R&D Systems. Following a 46-hour incubation at 37° C. with 5% CO2 in a humidified atmosphere, the plates were centrifuged for 3 minutes at 250×g, and half of the supernatant was transferred to a new plate to be used in the IL-17A assay (see below). Cell viability was assessed in the original plate using the CyQuant Direct Assay (Life Technologies). CyQuant values from test compound samples were normalized to those from DMSO-treated samples. The concentration of IL-17A in the supernatant was measured using the Homogeneous Time-Resolved Fluorescence (HTRF) assay (Cisbio Bioassays) according to the manufacturer's protocol. The assay was performed at room temperature in low volume, solid white 384-well plates (Greiner Bio-One). Samples and standards (serially-diluted human recombinant IL-17A (0 to 5,000 pg/mL concentration range; Cisbio Bioassays) were incubated with the anti-human IL-17A antibody conjugate for 16 hours and fluorescence was measured using a Pherastar FS microplate reader (BMG Labtech) in the HTRF mode (excitation at 337 nm and emission at 665 nm and 620 nm). IL-17A concentrations were assessed in duplicate aliquots of supernatant from each well resulting in a total of six readings per test condition. The 665 nm/620 nm signal ratio was calculated and the concentration of IL-17A in each sample was determined by interpolation from the standard curve. IL-17A values from test compound samples were normalized to those from DMSO-treated samples. Data were analyzed using GraphPad Prism version 6.00 for Windows (GraphPad Software, La Jolla Calif. USA). A non-linear regression analysis with log (inhibitor) vs. normalized response using a variable slope was applied to fit the data and determine the IC50 values for inhibition of IL-17A levels and cell viability.

As for `COC(=O)[C@]12CCC(C)(C)C[C@H]1[C@H]1C(=O)C=C3[C@@]4(C)C=C(C#N)C(=O)[C@](C)(O)[C@@H]4CC[C@@]3(C)[C@]1(C)CC2` [Compound T6, methyl (4aS,6aR,6bS,8aR,9R,12aS,14aR,14bS)-11-cyano-9-hydroxy-2,2,6a,6b,9,12a-hexamethyl-10,14-dioxo-1,3,4,5,6,6a,6b,7,8,8a,9,10,12a,14,14a,14b-hexadecahydropicene-4a(2H)-carboxylate], in the experiment on NRF2, the “EC2x: concentration giving 2-fold induction of ARE luciferase reporter” value stood at 30 nM. Moreover, the concentration for half-maximal inhibition (IC50) was found to be 115 nM at human RORγ, 9.2 nM in experiment [1] and 32 nM in the experiment with hIL17.
For `COCOC[C@]1(C)C(=O)C(C#N)=C[C@]2(C)C3=CC(=O)[C@@H]4[C@@H]5CC(C)(C)CC[C@]5(C(=O)OC)CC[C@@]4(C)[C@]3(C)CC[C@H]21` [Compound T7, methyl (4aS,6aR,6bS,8aR,9R,12aS,14aR,14bS)-11-cyano-9-((methoxymethoxy)methyl)-2,2,6a,6b,9,12a-hexamethyl-10,14-dioxo-1,3,4,5,6,6a,6b,7,8,8a,9,10,12a,14,14a,14b-hexadecahydropicene-4a(2H)-carboxylate], the “EC2x: concentration giving 2-fold induction of ARE luciferase reporter” value with NRF2 came to 270 nM. For the same compound, the figures for the IC50 (on human RORγ; in experiment [1]; in the experiment with hIL17) were 251 nM, 95.1 nM and 27 nM, respectively.
For `COC(=O)[C@]12CCC(C)(C)C[C@H]1[C@H]1C(=O)C=C3[C@@]4(C)C=C(C#N)C(=O)[C@@](C)(COC(C)=O)[C@@H]4CC[C@@]3(C)[C@]1(C)CC2` [Compound T8, methyl (4aS,6aR,6bS,8aR,9R,12aS,14aR,14bS)-9-(acetoxymethyl)-11-cyano-2,2,6a,6b,9,12a-hexamethyl-10,14-dioxo-1,3,4,5,6,6a,6b,7,8,8a,9,10,12a,14,14a,14b-hexadecahydropicene-4a(2H)-carboxylate] the same measures were 276 nM, 109 nM, 74.6 nM and 24 nM.
Taken in the same sequence, the figures for `COC(=O)[C@]12CCC(C)(C)C[C@H]1[C@H]1C(=O)C=C3[C@@]4(C)C=C(C#N)C(=O)[C@@](C)(COC(=O)c5ccccc5)[C@@H]4CC[C@@]3(C)[C@]1(C)CC2` [Compound T9, methyl (4aS,6aR,6bS,8aR,9R,12aS,14aR,14bS)-9-((benzoyloxy)methyl)-11-cyano-2,2,6a,6b,9,12a-hexamethyl-10,14-dioxo-1,3,4,5,6,6a,6b,7,8,8a,9,10,12a,14,14a,14b-hexadecahydropicene-4a(2H)-carboxylate] were 962 nM, 361 nM, 191 nM and 37 nM.
For `COC(=O)[C@]12CCC(C)(C)C[C@H]1[C@H]1C(=O)C=C3[C@@]4(C)C=C(C#N)C(=O)[C@@](C)(NC(=O)OC(C)(C)C)[C@@H]4CC[C@@]3(C)[C@]1(C)CC2` [Compound T10] the same measures were >1000 nM, 1080 nM, 414 nM and 204 nM.
With `COC(=O)[C@]12CCC(C)(C)C[C@H]1[C@H]1C(=O)C=C3[C@@]4(C)C=C(C#N)C(=O)[C@@](C)(N)[C@@H]4CC[C@@]3(C)[C@]1(C)CC2` [Compound T11, methyl (4aS,6aR,6bS,8aR,9S,12aS,14aR,14bS)-9-amino-11-cyano-2,2,6a,6b,9,12a-hexamethyl-10,14-dioxo-1,3,4,5,6,6a,6b,7,8,8a,9,10,12a,14,14a,14b-hexadecahydropicene-4a(2H)-carboxylate], in the experiment with NRF2, the “EC2x: concentration giving 2-fold induction of ARE luciferase reporter” value stood at 477 nM. The concentration for half-maximal inhibition (IC50) at human RORγ was 146 nM; in experiment [1] it was 601 nM; in the experiment with hIL17, 75 nM.
Take `COC(=O)[C@]12CCC(C)(C)C[C@H]1[C@H]1C(=O)C=C3[C@@]4(C)C=C(C#N)C(=O)[C@@](C)(NC(C)=O)[C@@H]4CC[C@@]3(C)[C@]1(C)CC2` [Compound T12, methyl (4aS,6aR,6bS,8aR,9S,12aS,14aR,14bS)-9-acetamido-11-cyano-2,2,6a,6b,9,12a-hexamethyl-10,14-dioxo-1,3,4,5,6,6a,6b,7,8,8a,9,10,12a,14,14a,14b-hexadecahydropicene-4a(2H)-carboxylate]: the “EC2x: concentration giving 2-fold induction of ARE luciferase reporter” value in the experiment with NRF2 is recorded as >1000 nM. Besides, the IC50 was 419 nM at human RORγ, > 1000 nM in experiment [1] and 81 nM with hIL17.
